Experiments:
Format in all cases: in vivo
Kochia (Kochia scoparia) [1] = experiment: Test A preemergence; conditions: Bassia scoparia, pre-emergence, 240 h, 0 to 100 scale where 0 is no effect and 100 is complete control, read-out: Kochia plant response rating
In short: (§1)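 Greenhouse, ~10 d after spray; visual injury vs untreated controls, 0 = no effect, 100 = complete control. Preemergence: directed soil spray over planted seeds. Postemergence: plants 2–10 cm, 1–2 leaf stage. Loam/sand blend. Compound in non-phytotoxic solvent with surfactant.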

[2] = tested on: barnyardgrass (Echinochloa crus-galli); experiment: Test A preemergence; conditions: Echinochloa crus-galli, pre-emergence, 240 h, 0 to 100 scale where 0 is no effect and 100 is complete control, read-out: Barnyardgrass plant response rating
In short: as §1

[3] = tested on: giant foxtail (Setaria faberii); experiment: Test A preemergence; conditions: Setaria faberi, pre-emergence, 240 h, 0 to 100 scale where 0 is no effect and 100 is complete control, read-out: Foxtail, Giant plant response rating
In short: as §1

[4] = tested on: pigweed (Amaranthus retroflexus); experiment: Test A preemergence; conditions: Amaranthus retroflexus, pre-emergence, 240 h, 0 to 100 scale where 0 is no effect and 100 is complete control, read-out: Pigweed plant response rating
[5] = tested on: ragweed (common ragweed, Ambrosia elatior); experiment: Test A preemergence; conditions: Ambrosia artemisiifolia, pre-emergence, 240 h, 0 to 100 scale where 0 is no effect and 100 is complete control, read-out: Ragweed plant response rating
In short: as §1

[6] = tested on: ryegrass, Italian (Italian ryegrass, Lolium multiflorum); experiment: Test A preemergence; conditions: Lolium multiflorum, pre-emergence, 240 h, 0 to 100 scale where 0 is no effect and 100 is complete control, read-out: Ryegrass, Italian plant response rating
In short: as §1

[7] = tested on: Galium (catchweed bedstraw, Galium aparine); experiment: Test A postemergence; conditions: Galium, post-emergence, 240 h
In short: as §1

Kochia (Kochia scoparia) [8] = experiment: Test A postemergence; conditions: Bassia scoparia, post-emergence, 240 h
In short: as §1

[9] = tested on: barnyardgrass (Echinochloa crus-galli); experiment: Test A postemergence; conditions: Echinochloa crus-galli, post-emergence, 240 h
In short: as §1

[10] = tested on: blackgrass (Alopecurus myosuroides); experiment: Test A postemergence; conditions: Alopecurus myosuroides, post-emergence, 240 h
In short: as §1

corn (Zea mays) = experiment: Test A postemergence; conditions: Zea mays, post-emergence, 240 h
In short: as §1

[11] = tested on: giant foxtail (Setaria faberii); experiment: Test A postemergence; conditions: Setaria faberi, post-emergence, 240 h
In short: as §1

[12] = tested on: pigweed (Amaranthus retroflexus); experiment: Test A postemergence; conditions: Amaranthus retroflexus, post-emergence, 240 h
In short: as §1

[13] = tested on: ragweed (common ragweed, Ambrosia elatior); experiment: Test A postemergence; conditions: Ambrosia artemisiifolia, post-emergence, 240 h
In short: as §1

[14] = tested on: ryegrass, Italian (Italian ryegrass, Lolium multiflorum); experiment: Test A postemergence; conditions: Lolium multiflorum, post-emergence, 240 h
In short: as §1

[15] = tested on: wheat (Triticum aestivum); experiment: Test A postemergence; conditions: Triticum aestivum, post-emergence, 240 h
In short: as §1

[16] = tested on: barnyardgrass (Echinochloa crus-galli); experiment: Test B flooded paddy test; conditions: Echinochloa crus-galli, 250 g ai/ha, Flood; 0 to 100 scale where 0 is no effect and 100 is complete control; read-out: Barnyardgrass plant response rating
In short: (§2)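 2-leaf plants; pots flooded 3 cm over soil; cpd added to paddy water; depth held; greenhouse 13–15 d; visual rating vs controls, 0 = no effect, 100 = complete control.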

[17] = tested on: ducksalad (Heteranthera limosa); experiment: Test B flooded paddy test; conditions: Heteranthera limosa, 250 g ai/ha, Flood; 0 to 100 scale where 0 is no effect and 100 is complete control; read-out: Ducksalad plant response rating
In short: as §2

rice (Oryra sativa) = experiment: Test B flooded paddy test; conditions: Oryza sativa, 250 g ai/ha, Flood; 0 to 100 scale where 0 is no effect and 100 is complete control; read-out: Rice plant response rating
In short: as §2

[18] = tested on: sedge, umbrella (small-flower umbrella sedge, Cyperus difformis); experiment: Test B flooded paddy test; conditions: Cyperus difformis, 250 g ai/ha, Flood; 0 to 100 scale where 0 is no effect and 100 is complete control; read-out: Sedge, Umbrella plant response rating
In short: as §2

[19] = 125 g ai/ha, preemergence, approx. 10 d

SMILES: CN1C[C@H](c2ccc(F)c(Oc3ccccc3)c2)[C@@H](C(=O)Nc2ccccc2F)C1=O [Compound 1141]
- pest or weed control at 31 g/ha (Kochia (Kochia scoparia) [1]; 31 g ai/ha, Preemergence): 0%
- pest or weed control at 125 g/ha (Kochia (Kochia scoparia) [1]; [19]): 0%
- pest or weed control at 31 g/ha ([2]; 31 g ai/ha, Preemergence): 30%
- pest or weed control at 125 g/ha [2, 19]: 80%
- pest or weed control at 31 g/ha ([3]; 31 g ai/ha, Preemergence): 80%
- pest or weed control at 125 g/ha [3, 19]: 90%
- pest or weed control at 31 g/ha ([4]; 31 g ai/ha, Preemergence): 30%
- pest or weed control at 125 g/ha [4, 19]: 60%
- pest or weed control at 31 g/ha ([5]; 31 g ai/ha, Preemergence): 0%
- pest or weed control at 125 g/ha [5, 19]: 0%
- pest or weed control at 31 g/ha ([6]; 31 g ai/ha, Preemergence): 0%
- pest or weed control at 125 g/ha [6, 19]: 40%
- pest or weed control at 125 g/ha ([7]; 125 g ai/ha, postemergence, visual injury on 0 to 100 scale (0 no effect, 100 complete control), approx. 10 d, read-out: Galium plant response rating): 90%
- pest or weed control at 31 g/ha ([7]; Postemergence, 31 g ai/ha, visual injury after approx. 10 d, 0 to 100 scale, 0 no effect, 100 complete control, read-out: Plant response rating, Galium): 60%
- pest or weed control at 125 g/ha (Kochia (Kochia scoparia) [8]; 125 g ai/ha, postemergence, visual injury on 0 to 100 scale (0 no effect, 100 complete control), approx. 10 d, read-out: Kochia plant response rating): 30%
- pest or weed control at 31 g/ha (Kochia (Kochia scoparia) [8]; Postemergence, 31 g ai/ha, visual injury after approx. 10 d, 0 to 100 scale, 0 no effect, 100 complete control, read-out: Plant response rating, Kochia): 0%
- pest or weed control at 125 g/ha ([9]; 125 g ai/ha, postemergence, visual injury on 0 to 100 scale (0 no effect, 100 complete control), approx. 10 d, read-out: Barnyardgrass plant response rating): 90%
- pest or weed control at 31 g/ha ([9]; Postemergence, 31 g ai/ha, visual injury after approx. 10 d, 0 to 100 scale, 0 no effect, 100 complete control, read-out: Plant response rating, Barnyardgrass): 60%
- pest or weed control at 125 g/ha ([10]; 125 g ai/ha, postemergence, visual injury on 0 to 100 scale (0 no effect, 100 complete control), approx. 10 d, read-out: Blackgrass plant response rating): 30%
- pest or weed control at 31 g/ha ([10]; Postemergence, 31 g ai/ha, visual injury after approx. 10 d, 0 to 100 scale, 0 no effect, 100 complete control, read-out: Plant response rating, Blackgrass): 0%
- plant injury at 125 g/ha (corn (Zea mays); 125 g ai/ha, postemergence, visual injury on 0 to 100 scale (0 no effect, 100 complete control), approx. 10 d, read-out: Corn plant response rating): 20%
- Corn plant response rating (crop injury, 0 = no effect, 100 = complete kill) at 31 g/ha (corn (Zea mays); Postemergence, 31 g ai/ha, visual injury after approx. 10 d, 0 to 100 scale, 0 no effect, 100 complete control): 0%
- pest or weed control at 125 g/ha ([11]; 125 g ai/ha, postemergence, visual injury on 0 to 100 scale (0 no effect, 100 complete control), approx. 10 d, read-out: Foxtail, Giant plant response rating): 90%
- pest or weed control at 31 g/ha ([11]; Postemergence, 31 g ai/ha, visual injury after approx. 10 d, 0 to 100 scale, 0 no effect, 100 complete control, read-out: Plant response rating, Foxtail, Giant): 60%
- pest or weed control at 125 g/ha ([12]; 125 g ai/ha, postemergence, visual injury vs untreated controls after approx. 10 d, 0 = no effect, 100 = complete control, read-out: Pigweed plant response rating (0 to 100 scale)): 50%
- pest or weed control at 31 g/ha ([12]; Postemergence, 31 g ai/ha, visual injury after approx. 10 d, 0 to 100 scale, 0 no effect, 100 complete control, read-out: Plant response rating, Pigweed): 30%
- pest or weed control at 125 g/ha ([13]; 125 g ai/ha, postemergence, visual injury vs untreated controls after approx. 10 d, 0 = no effect, 100 = complete control, read-out: Ragweed plant response rating (0 to 100 scale)): 30%
- pest or weed control at 31 g/ha ([13]; Postemergence, 31 g ai/ha, visual injury after approx. 10 d, 0 to 100 scale, 0 no effect, 100 complete control, read-out: Plant response rating, Ragweed): 0%
- pest or weed control at 125 g/ha ([14]; 125 g ai/ha, postemergence, visual injury vs untreated controls after approx. 10 d, 0 = no effect, 100 = complete control, read-out: Ryegrass, Italian plant response rating (0 to 100 scale)): 50%
- pest or weed control at 31 g/ha ([14]; Postemergence, 31 g ai/ha, visual injury after approx. 10 d, 0 to 100 scale, 0 no effect, 100 complete control, read-out: Plant response rating, Ryegrass, Italian): 20%
- plant injury at 125 g/ha ([15]; 125 g ai/ha, postemergence, visual injury vs untreated controls after approx. 10 d, 0 = no effect, 100 = complete control, read-out: Wheat plant response rating (0 to 100 scale)): 20%
- plant injury at 31 g/ha ([15]; Postemergence, 31 g ai/ha, visual injury after approx. 10 d, 0 to 100 scale, 0 no effect, 100 complete control, read-out: Plant response rating, Wheat): 0%
- pest or weed control at 250 g/ha [16]: 50%
- pest or weed control at 250 g/ha [17]: 90%
- pest or weed control at 250 g/ha (rice (Oryra sativa)): 0%
- pest or weed control at 250 g/ha [18]: 0%

Source: patent US12077503B2, “Substituted cyclic amides and their use as herbicides” (FMC CORPORATION, priority 2015, dated 2024)
